Assays:
[1] = system: non-injured control animals; test: Stretch response in non-injured control animals after bumetanide injection; assay type: in vivo, CD-1 mice
Text: Adult female CD-1 mice (n=120 weight, 27-37 g) were used for all of the animal studies performed. A total of 51 animals were used for the long-term stimulation studies that included four groups. Animals with SCI were randomly divided into three groups: a-tsDCS-treated group (n=16), a c-tsDCS-treated group (n=15), and a sham-treated group (n=10), and a non-injured control group (n=10). Subgroups of these animals were also used to study long-term changes in expression for KCC2, pKCC2, NKCC1, and pNKCC1. Injured animals with spasticity were used to test the immediate effect of tsDCS on rate-dependent depression (RDD) (n=6), while the relatively short-term effects of tsDCS on the expression of NKCC1 and pNKCC1 were studied in non-injured animals (n=10). Pharmacological studies involving bumetanide (NKCC1 blocker) were conducted with SCI animals (n=9) and non-injured control animals (n=3). Meanwhile, qPCR studies were conducted with non-injured control animals (n=41). All of the study protocols were approved by the College of Staten Island IACUC committee. […]

[2] = system: animals with spasticity following SCI; test: Stretch-apparatus test of spasticity (muscle resistance, EMG) in mice with SCI after bumetanide injection; assay type: in vivo, CD-1 mice
Text: Adult female CD-1 mice (n=120 weight, 27-37 g) were used for all of the animal studies performed. A total of 51 animals were used for the long-term stimulation studies that included four groups. Animals with SCI were randomly divided into three groups: a-tsDCS-treated group (n=16), a c-tsDCS-treated group (n=15), and a sham-treated group (n=10), and a non-injured control group (n=10). Subgroups of these animals were also used to study long-term changes in expression for KCC2, pKCC2, NKCC1, and pNKCC1. Injured animals with spasticity were used to test the immediate effect of tsDCS on rate-dependent depression (RDD) (n=6), while the relatively short-term effects of tsDCS on the expression of NKCC1 and pNKCC1 were studied in non-injured animals (n=10). Pharmacological studies involving bumetanide (NKCC1 blocker) were conducted with SCI animals (n=9) and non-injured control animals (n=3). Meanwhile, qPCR studies were conducted with non-injured control animals (n=41). All of the study protocols were approved by the College of Staten Island IACUC committee.
Following administration of a ketamine/xylazine cocktail (90/10 mg/kg, i.p.) to achieve deep anesthesia, a laminectomy at thoracic T10 vertebra was performed to expose the T13 spinal segment. An infinite horizon (IH) spinal cord impactor (IH-0400, Precision Systems & Instrumentation, VA, USA) was used to induce a contusive SCI force. The impact force level was 60 kdyn and was selected based on data collected from exploratory experiments that were conducted with this impactor. In these preliminary studies, contusion injuries were induced with increasing impact forces in order to optimize the SCI contusion force needed to produce spastic mice. Mice impacted at 60 kdyn produced ideal spastic behavior at approximately 2-3 weeks post-injury. Impact was applied by using a standard mouse tip (diameter=1.3 mm). Following the contusion procedure, overlying muscles and skin were sutured and the surgical site was covered with a layer of gentamicin sulfate ointment to prevent infection. Each mouse subsequently received a number and then was placed on a warming pad (30° C.) for recovery.
A computer-controlled stretch device was assembled in our laboratory from a stepper motor (DMX-UMD-23m, ARCUS Technology Inc., CA. USA), a foot presser mounted on a force-displacement transducer (FT03, GRASS Technologies/NATUS, CA, USA) connected to a bridge amplifier (ADInstruments, Colorado Springs, CO, USA), and a mouse holder (FIG. 1). The transducer was permanently fixed to a linear rail-guided carriage (SGB15NUU, ZNT Automatic Technology Co, Zhejiang, China). The rotational movement of the stepper motor is converted into linear displacement at the carriage by using a set of jointed flat-aluminum rods that are connected with swivel hub bearings. Two computer software programs were utilized to control the stepper motor and to perform the online (during) stretch and electromyogram (EMG) recordings. First, a stepper motor control software (DMX-UMD GUI, ARCUS Technology Inc.) was re-written to permit the execution of three consecutively timed stretches, with each stretch separated by two 10-s recovery intervals. The stepper motor was also programmed to provide three different stretch speeds: 18/s, 180/s, and 1800/s, which correspond to 3 RPM, 30 RPM, and 300 RPM, respectively. The second software package used was LabChart-7 bundled with PowerLab data acquisition system software (ADInstruments) which was used to gather and analyze data.
A mouse restraining system was fabricated in our laboratory (FIG. 1) from three components. 1) A clear Plexiglas acrylic tube served as the mouse holding chamber. 2) An internally adjustable support system made of a clear acrylic concave stabilization plate. The location of the plate was able to be adjusted linearly along the length of the chamber via a handle that protruded through a cutout that ran the entire length of the tube. […]

[3] = 60 mg/kg, 5, 20, 30 and 45 min after injection vs baseline, p<0.001

## CCCCNc1cc(C(=O)O)cc(S(N)(=O)=O)c1Oc1ccccc1 [bumetanide]
[1]; 60 mg/kg, non-injured control animals
  animals exhibiting a reduced reflexive stretch response: 21%
[1]; after bumetanide injection, controls
  reduction in reflexive muscle resistance in controls: 21 °/0
[2]; 30 mg/kg, one hour after administration, n=5, data not shown
  reductions in spasticity: moderate reductions in spasticity
[2]; [3]
  corresponding EMG: significant reduction
  reduction in peak resistance (reflexive muscle resistance): 34%
[2]; 60 mg/kg, thirty min after injection
  background activity and resting muscle tone on slow stretches: reduce background activity and resting muscle tone
[2]; SCI mice, dose not given
  spasticity following bumetanide treatment: spasticity was reduced
[2]; following bumetanide injection, n=9 mice, vs baseline 2
  muscle resistance and concurrent EMG at low speed and high speed (FIG. 9): decreases in muscle resistance and concurrent EMG

— US11986659B2, “Modulation of neuronal NKCC1 as a therapeutic strategy for spasticity and related disorders” (Research Foundation of the City University of New York, priority 2018, dated 2024)
